Laboratory results published in US4814332A, “Antimicrobial 1,3-disubstituted/imidazolium salts” (Hoffman-La Roche Inc., priority 1986, dated 1989).

How the values were obtained:
[1] = acute toxicity after single oral administration to mice; conditions: mouse, in vivo, p.o.
Protocol: The filaricidal activity of the compounds of formula I can be determined, for example, on cotton rats (Sigmodon hispidus) which have been infected with Litomosoides carinii. The infection with L. carinii is transmitted by the blood-sucking mite Bdellonyssus bacoti in which the development of the microfilaria in infectious larvae takes place. The cotton rats are infected by exposing them to bites of infected mites. After fourteen (14) weeks, the infected groups of 2-4 animals are treated subcutaneously with the compound to be tested. Forty two (42) days after treatment with the compound to be tested, the experimental animals are dissected, and the adult filaria are removed from the pleural cavity. Living and dead or encapsulated worms are separated from one another and weighed. The filaricidal activity is expressed as the percentage proportion of dead macrofilaria per treatment group. The ED90 is then determined by means of Probit analysis using the values from different dosage groups. The ED90 is that dosage at which 90% of the worms removed from the pleural cavity are dead. In the following Table, the results which were obtained in the previously described test with representative members of the class of compound defined by formula I are compiled. […]

Litomosoides carinii = test: filaricidal activity on cotton rats infected with Litomosoides carinii; type: in vivo, Litomosoides carinii (in cotton rats, Sigmodon hispidus); conditions: sc, 1008 h, s.c., L. carinii-infected cotton rats, treated 14 weeks after infection, dissected 42 days after treatment, Probit analysis, read-out: ED90 (dosage at which 90% of the worms removed from the pleural cavity are dead)
Protocol: The filaricidal activity of the compounds of formula I can be determined, for example, on cotton rats (Sigmodon hispidus) which have been infected with Litomosoides carinii. The infection with L. carinii is transmitted by the blood-sucking mite Bdellonyssus bacoti in which the development of the microfilaria in infectious larvae takes place. The cotton rats are infected by exposing them to bites of infected mites. After fourteen (14) weeks, the infected groups of 2-4 animals are treated subcutaneously with the compound to be tested. Forty two (42) days after treatment with the compound to be tested, the experimental animals are dissected, and the adult filaria are removed from the pleural cavity. Living and dead or encapsulated worms are separated from one another and weighed. The filaricidal activity is expressed as the percentage proportion of dead macrofilaria per treatment group. The ED90 is then determined by means of Probit analysis using the values from different dosage groups. The ED90 is that dosage at which 90% of the worms removed from the pleural cavity are dead. In the following Table, the results which were obtained in the previously described test with representative members of the class of compound defined by formula I are compiled. Moreover, the Table contains data concerning the acute toxicity of some of the compounds of formula I in mg per kg obtained after single oral administration to mice.

CN(C)C=Cc1n(N=Cc2ccc(N(C)C)cc2)cc[n+]1N=Cc1ccc(N(C)C)cc1.[Cl-] [Compound A, 1,3-bis[[p-(dimethylamino)benzylidene]amino]-2-[2-(dimethylamino)vinyl]imidazolium chloride]
LD50 [1]: 312 to 625 mg/kg | ED90 (Litomosoides carinii): 1 mg/kg

CN(C)c1ccc(C=Nn2cc[n+](N=Cc3ccc(N(C)C)cc3)c2C=CN2CCOCC2)cc1.[Cl-] [Compound C, 1,3-bis[[p-(dimethylamino)benzylidene]amino]-2-(2-morpholinovinyl)imidazolium chloride]
ED90 (Litomosoides carinii): 0.55 mg/kg

CN(C)c1ccc(C=Nn2cc[n+](N=Cc3ccc(N(C)C)cc3)c2C=CN2CCCCC2)cc1.[Cl-] [Compound B, 1,3-bis[[p-(dimethylamino)benzylidene]amino]-2-(2-piperidinovinyl)imidazolium chloride]
ED90 (Litomosoides carinii): 2 mg/kg

CN(C)c1ccc(C=Nn2cc[n+](N=Cc3ccc(N(C)C)cc3)c2-c2ccccc2)cc1.[Cl-] [Compound D, 1,3-bis[[p-(dimethylamino)benzylidene]amino]-2-phenylimidazolium chloride]
LD50 [1]: 1250 to 2500 mg/kg | ED90 (Litomosoides carinii): < 1 mg/kg
